According to patent publication US20220281930A1, “COMPOSITIONS AND METHODS FOR THE TREATMENT OF PATHOLOGICAL PAIN AND ITCH” (DUKE UNIVERSITY, priority 2019, published 2022):

Legend:
KCC2 promoter = experiment: KCC2-LUC luciferase primary screen in primary cortical neurons; assay type: cell-based, mouse; details: Natural Compounds; rank score; 100 nM, 48 h
Experimental: Cytosine arabinoside ([…]) was added to cultures on the second day after seeding [2 d in vitro (DIV)] to inhibit the proliferation of non-neuronal cells. Cell suspension was plated at a density of 1×10^6 cells/ml onto 24-well tissue-culture dishes coated with poly-d-lysine.
LUC activity was then determined for each compound. Culture supernatant was removed and cells were lysed with 150 μl lysis buffer (Targeting Systems CA, USA cat. CLR1). LUC activity was measured with a RedLuciferase Assay kit (Targeting Systems cat. FLAR) according to the manufacturer's instructions. A Veritas microplate luminometer was used to measure luminescence; for each treatment triplicates of 40 μl cell lysates (from each 24-well tissue-culture dish) were used and 25 μl substrate was injected per well. […] Relative Light units (RLU) for each treatment was derived from Light Units (compound treatment)/vehicle treatment (0.5% DMSO).
The primary screen encompassed three levels of LUC measurements. […] Each compound was ranked based on composite scores from primary and secondary screening.

KCC2 mRNA = KCC2 mRNA RT-qPCR in rat primary cortical neurons; assay type: cell-based; details: primary rat cortical neurons; 0.1, 0.2, 0.5 μM KP
Experimental: Total RNA was isolated from cultured cell samples using Directzol RNA miniprep kit (ZymoResearch). The protocol includes DNAse digestion to exclude genomic DNA from preparations. Total RNA (1 μg) was reverse transcribed using oligo primers (dT) and SuperScriptIII first-strand synthesis kit (Invitrogen). Gene expression was assessed by quantitative real-time PCR using 2×SYBR Green Master Mix (Qiagen) and a three-step cycling protocol (anneal at 60° C./elongate at 72° C., denature at 95° C.). Specificity of primers was verified by dissociation/melting curve for the amplicons when using SYBR Green as a detector. All reactions were performed in triplicates. The amount of target messenger RNA (mRNA) in the experimental group relative to that in the control was determined from the resulting fluorescence and threshold values (Ct) using the ΔΔCt method. βIII-tubulin was used as housekeeping gene. oligodT-initiated reverse transcription of 1 μg total RNA, DNA-se treated, was subjected to RT-qPCR using primers specific for KCC2 for rat and KCC2 for human sequences, normalized for neuronal βIII-tubulin, as previously described (Yeo et al., 2009, J Neurosci 29:14652-14662). For cultured neurons, total RNA was extracted from pelleted cells, and for spinal cord tissue it was extracted from microdissected lumbar spinal cord dorsal horn.

nerve injury pain = experiment: Nerve constriction injury (PSNL) pain model, mechanical withdrawal; assay type: in vivo, mouse
Experimental: For pain-related behavior, mechanical allodynia was assessed with von Frey filaments (Ugo Basile, Italy). The mice were placed on a 5×5-mm wire-mesh grid floor in individual compartments to avoid visual stimulation and allowed to adapt for 0.5 h prior to the von Frey test. The von Frey filament was then applied to the middle of the plantar surface of the hind paw with 5 g force. The withdrawal responses following the hind paw stimulation were measured at least three times, and the mechanical allodynia, which was defined as an increase in the number of withdrawal responses to the stimulation, was compared.
Thus, in vivo, KP functions as an analgesic when administered systemically in injury-related pain models.
Next, whether the analgesic effects of KP were mediated centrally at the spinal cord level was assessed.
Mechanical withdrawal was measured thresholds after nerve constriction injury (PSNL) (FIG. 12B and FIG. 12C). […] Thus, δ-cat(S276A) spinal transgenesis via AAV9 is sufficient to evoke analgesia after nerve constriction injury, to lesser degree also with δ-cat(WT). Importantly, δ-cat(S276A) spinal transgenesis was accompanied by increased expression of KCC2 in the SCDH. […] Moreover, our discovery points toward a genetically-encoded approach that can be developed for translation into clinical use as an alternative or complement to KP-related small molecules.

CDKs = experiment: DARTS assay, CDKs; assay type: binding, rat; details: 20 μM KP
Experimental: Cultured primary rat cortical neurons were treated with either vehicle DMSO (0.1%) or 20 μM KP for 30 h. Cells were lysed in ice-cold lysis buffer (Tris.Cl pH8 50 mM, NaCl 150 mM, NP40 0.5%, N-dodecyl-b-D-maltoside 0.5%, Phosphatase Inhibitor (Pierce #88667) and Protease Inhibitor (Roche #11836153001)). Protein concentrations were determined by Bio-Rad DC Protein Assay kit using bovine albumin as standard. All steps were performed on ice. Samples were warmed to room temperature and digested with pronase (final concentration 1:500) for 30 min at 30° C. Digestion was halted using 0.5M EDTA. Only proteins not bound to KP were digested. The protein mixture was dialyzed using dialysis cassettes (Thermo Fisher 66203, 2K MWCO) and analyzed by LC-MS/MS method to identify proteins that are bound to KP, the latter step carried out in the Duke Proteomics Core Laboratory.
A drug affinity responsive target stability (DARTS) assay (Lomenick, et al., 2009, Proc Natl Acad Sci USA 106:21984-21989) was used to study direct binding of KP to GSK3ß (FIG. 8A) in primary cortical neurons. The findings were consistent with previous reports in cell lines (Knockaert, et al., 2002, The Journal of biological chemistry 277:25493-25501) yet novel in primary neurons. […]

O=C1Cc2c([nH]c3ccc(Br)cc23)-c2ccccc2N1 [kenpaullone, 9-bromo-7,12-dihydro-indolo [3,2-d] [1]benzazepin-6(5H)-one]
Luciferase Score (triplicates) (KCC2 promoter): 2
KCC2 mRNA expression (KCC2 mRNA): dose-dependent increase
analgesic effect on sensitized mechanical withdrawal (nerve injury pain; 10 mg/kg i.p. daily after nerve constriction injury): less accentuated
analgesic effect on sensitized mechanical withdrawal (nerve injury pain; 30 mg/kg i.p. daily after nerve constriction injury): more pronounced
behavioral sensitization of juvenile mice (nerve injury pain; KP 30 mg/kg, PSNL, juvenile mice): almost complete behavioral recovery
mechanical allodynia (nerve injury pain; intrathecal 30 μg, nerve constriction injury): reduced mechanical allodynia
protracted analgesia (nerve injury pain; systemic KP, d7-14 after nerve constriction): almost complete elimination of sensitization
binding of KP to CDKs (CDKs): not identified
